# In patent US20250129070A1, “BIFUNCTIONAL ANDROGEN RECEPTOR COMPOUNDS” (priority 2023, published 2025):
# Columns and labels:
# [1] = system: AR / CBP ternary complex; test: Ternary complex formation assay (sandwich ELISA, AR capture / CBP detection) in VCaP cell lysates; type: cell-based; conditions: 1.5 hours treatment, sandwich ELISA (AR capture, CBP or p300 detection)
# Procedure, shortened: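 VCaP cells (50K/well, 5% charcoal-stripped FBS, ≥3 days) treated with bifunctional compound for 1.5 h, then lysed 30 min at 4 °C. AR captured on anti-AR (AR 441) plates; bound CBP or p300 detected by rabbit mAb plus HRP secondary. QuantaRed chemifluorescence read at ex 570/em 585, immediately and at 5 and 15 min.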
# [2] = system: VCaP cells; test: VCaP growth inhibition assay; type: cell-based; conditions: 30 pM R1881, 9 days, CTG
# Description: VCaP cells (ATCC Cat #CRL-2876) are plated at 1×10^4 cells per well of a white plastic 96-well cluster plate (Thermo Scientific Nunc Cat #165306) in 100 uL phenol red-free DMEM (Gibco Cat #21063-029) media with 5% CSS (Omega Scientific Cat #FB-04). Cluster plates are returned to the incubator (37*C/5% CO2) for 72 hours prior to treatment. Just prior to treatment, 100 μL of phenol red-free DMEM/5% CSS and […] R1881 (Sigma Cat #R0908-10 mg) was added to each well of the cluster plates (Final R1881 concentration=30 pM). Compounds (200×) were added to each well in a volume of 1 uL, with serial dilutions (1:5) from 20 uM to 2 pM (final concentrations in well are 100 nM to 10 fM). Cluster plates are returned to the incubator for 9 days.
# After the 9-day treatment period, media was removed from the cluster plates by inversion and 100 uL room temperature CTG reagent (Promega Cat #G7573) is added to each well. The cluster plates are placed on a shaker and incubated at room temperature for 20 minutes. Following this shaking/incubation, cluster plates are read on a luminometer (BMG ClarioStar). IC50 values are obtained by graphing the RLU data vs. compound concentration with nonlinear regression 4-parameter logistic curves (GraphPad Prism).
Structure (SMILES),EC50 [1] [nM],IC50 [2] [nM]
"CN1C(=O)CCc2cc(N3CCCc4cc(-c5ccc(CCC6CCN(c7ncc(C(=O)NC8C(C)(C)C(Oc9ccc(C#N)c(Cl)c9)C8(C)C)cn7)CC6)nc5)ncc43)ccc21 (stereo not drawn) [Compound 240, N-[3-(3-chloro-4-cyano-phenoxy)-2,2,4,4-tetramethyl-cyclobutyl]-2-[4-[2-[5-[1-(1-methyl-2-oxo-3,4-dihydroquinolin-6-yl)-3,4-dihydro-2H-1,7-naphthyridin-6-yl]-2-pyridyl]ethyl]-1-piperidyl]pyrimidine-5-carboxamide]",1 to 10,1 to 100
"CC(=O)N1CCc2c(c(N3CCCc4cc(-c5cnn(C)c5)c(C(F)F)cc43)nn2C2CCC(N(C)C3CCN(c4ncc(C(=O)NC5C(C)(C)C(Oc6ccc(C#N)c(Cl)c6)C5(C)C)cn4)CC3)CC2)C1 (stereo not drawn) [Compound 284, 2-[4-[[4-[5-acetyl-3-[7-(difluoromethyl)-6-(1-methylpyrazol-4-yl)-3,4-dihydro-2H-quinolin-1-yl]-6,7-dihydro-4H-pyrazolo[4,3-c]pyridin-1-yl]cyclohexyl]-methyl-amino]-1-piperidyl]-N-[3-(3-chloro-4-cyano-phenoxy)-2,2,4,4-tetramethyl-cyclobutyl]pyrimidine-5-carboxamide]",< 1,≤ 0.1
"Cn1cc(-c2cc3cccc(-c4cc(C5=CCN(CC6CCN(c7ncc(C(=O)NC8C(C)(C)C(Oc9ccc(C#N)c(Cl)c9)C8(C)C)cn7)CC6)CC5)c5c(c4)n(C)c(=O)n5C)c3cn2)cn1 (stereo not drawn) [Compound 243, N-[3-(3-chloro-4-cyano-phenoxy)-2,2,4,4-tetramethyl-cyclobutyl]-2-[4-[[4-[1,3-dimethyl-6-[3-(1-methylpyrazol-4-yl)-8-isoquinolyl]-2-oxo-benzimidazol-4-yl]-3,6-dihydro-2H-pyridin-1-yl]methyl]-1-piperidyl]pyrimidine-5-carboxamide]",> 100,0.1 to 1
"CNC(=O)N1CCc2c(c(N3CCCc4cc(-c5cnn(C)c5)c(C(F)F)cc43)nn2C2CCN(c3ncc(C(=O)NC4C(C)(C)C(Oc5ccc(C#N)c(Cl)c5)C4(C)C)cn3)CC2)C1 (stereo not drawn) [Compound 93, 1-[1-[5-[[3-(3-chloro-4-cyano-phenoxy)-2,2,4,4-tetramethyl-cyclobutyl]carbamoyl]pyrimidin-2-yl]-4-piperidyl]-3-[7-(difluoromethyl)-6-(1-methylpyrazol-4-yl)-3,4-dihydro-2H-quinolin-1-yl]-N-methyl-6,7-dihydro-4H-pyrazolo[4,3-c]pyridine-5-carboxamide]",> 100,0.1 to 1
"CC(=O)N1CCc2c(c(N3CCCc4cc(-c5cnn(C)c5)c(C(F)F)cc43)nn2C2CCN(Cc3ncc(C(=O)NC4C(C)(C)C(Oc5ccc(C#N)c(Cl)c5)C4(C)C)cn3)CC2)C1 (stereo not drawn) [Compound 94, 2-[[4-[5-acetyl-3-[7-(difluoromethyl)-6-(1-methylpyrazol-4-yl)-3,4-dihydro-2H-quinolin-1-yl]-6,7-dihydro-4H-pyrazolo[4,3-c]pyridin-1-yl]-1-piperidyl]methyl]-N-[3-(3-chloro-4-cyano-phenoxy)-2,2,4,4-tetramethyl-cyclobutyl]pyrimidine-5-carboxamide]",10 to 100,1 to 100
"CC(=O)N1CCc2c(c(Nc3ccc(-c4cnn(C)c4)cc3F)nn2C2CN(CCN3CCN(c4ncc(C(=O)NC5C(C)(C)C(Oc6ccc(C#N)c(Cl)c6)C5(C)C)cn4)CC3)C2)C1 (stereo not drawn) [Compound 164, 2-[4-[2-[3-[5-acetyl-3-[2-fluoro-4-(1-methylpyrazol-4-yl)anilino]-6,7-dihydro-4H-pyrazolo[4,3-c]pyridin-1-yl]azetidin-1-yl]ethyl]piperazin-1-yl]-N-[3-(3-chloro-4-cyano-phenoxy)-2,2,4,4-tetramethyl-cyclobutyl]pyrimidine-5-carboxamide]",,≤ 0.1
"CC(=O)N1CCc2c(c(Nc3ccc(-c4cnn(C)c4)cc3F)nn2C2CCN(CC3CCN(c4ncc(C(=O)NC5C(C)(C)C(Oc6ccc(C#N)c(Cl)c6)C5(C)C)cn4)CC3)C2)C1 (stereo not drawn) [Compound 7, 2-[4-[[3-[5-acetyl-3-[2-fluoro-4-(1-methylpyrazol-4-yl)anilino]-6,7-dihydro-4H-pyrazolo[4,3-c]pyridin-1-yl]pyrrolidin-1-yl]methyl]-1-piperidyl]-N-[3-(3-chloro-4-cyano-phenoxy)-2,2,4,4-tetramethyl-cyclobutyl]pyrimidine-5-carboxamide]",,0.1 to 1

# Second part, the molecule after the results:
EC50 [1] [nM],IC50 [2] [nM],Structure (SMILES)
< 1,0.1 to 1,"COc1cc(OC2C(C)(C)C(NC(=O)c3ccc(N4CCN(CCn5cc(-c6cc7cccc(-c8nn(C9CCOCC9)c9c8CN(C(C)=O)CC9)c7cn6)cn5)CC4)cc3)C2(C)C)ccc1C#N (stereo not drawn) [Compound 249, 4-[4-[2-[4-[8-(5-acetyl-1-tetrahydropyran-4-yl-6,7-dihydro-4H-pyrazolo[4,3-c]pyridin-3-yl)-3-isoquinolyl]pyrazol-1-yl]ethyl]piperazin-1-yl]-N-[3-(4-cyano-3-methoxy-phenoxy)-2,2,4,4-tetramethyl-cyclobutyl]benzamide]"
< 1,0.1 to 1,"COc1cc(OC2C(C)(C)C(NC(=O)c3ccc(N4CC5(CCC(N6CCC(n7nc(N8CCCc9cc(-c%10cnn(C)c%10)c(C)cc98)c8c7CCN(C(C)=O)C8)CC6)CC5)C4)cc3)C2(C)C)ccc1C#N (stereo not drawn) [Compound 449, 4-[7-[4-[5-acetyl-3-[7-methyl-6-(1-methylpyrazol-4-yl)-3,4-dihydro-2H-quinolin-1-yl]-6,7-dihydro-4H-pyrazolo[4,3-c]pyridin-1-yl]-1-piperidyl]-2-azaspiro[3.5]nonan-2-yl]-N-[3-(4-cyano-3-methoxy-phenoxy)-2,2,4,4-tetramethyl-cyclobutyl]benzamide]"
< 1,≤ 0.1,"COc1cc(OC2C(C)(C)C(NC(=O)c3ccc(N4CCN(C5CCN(c6ccc(-c7cc8cccc(-c9nn(C%10CCOCC%10)c%10c9CN(C(C)=O)CC%10)c8cn7)cn6)CC5)CC4)cc3)C2(C)C)ccc1C#N (stereo not drawn) [Compound 321, 4-[4-[1-[5-[8-(5-acetyl-1-tetrahydropyran-4-yl-6,7-dihydro-4H-pyrazolo[4,3-c]pyridin-3-yl)-3-isoquinolyl]-2-pyridyl]-4-piperidyl]piperazin-1-yl]-N-[3-(4-cyano-3-methoxy-phenoxy)-2,2,4,4-tetramethyl-cyclobutyl]benzamide]"
< 1,≤ 0.1,"COc1cc(OC2C(C)(C)C(NC(=O)c3ccc(N4CCC(CN5CCC(n6nc(N7CCCc8cc(-c9cnn(C)c9)c(C(F)F)cc87)c7c6CCN(C(C)=O)C7)CC5)CC4)cc3)C2(C)C)ccc1C#N (stereo not drawn) [Compound 185, 4-[4-[[4-[5-acetyl-3-[7-(difluoromethyl)-6-(1-methylpyrazol-4-yl)-3,4-dihydro-2H-quinolin-1-yl]-6,7-dihydro-4H-pyrazolo[4,3-c]pyridin-1-yl]-1-piperidyl]methyl]-1-piperidyl]-N-[3-(4-cyano-3-methoxy-phenoxy)-2,2,4,4-tetramethyl-cyclobutyl]benzamide]"
< 1,≤ 0.1,"COc1cc(OC2C(C)(C)C(NC(=O)c3ccc(N4CCC(N5CC6(CCC(n7nc(N8CCCc9cc(-c%10cnn(C)c%10)c(C(F)F)cc98)c8c7CCN(C(C)=O)C8)CC6)C5)CC4)cc3)C2(C)C)ccc1C#N (stereo not drawn) [Compound 372, 4-[4-[7-[5-acetyl-3-[7-(difluoromethyl)-6-(1-methylpyrazol-4-yl)-3,4-dihydro-2H-quinolin-1-yl]-6,7-dihydro-4H-pyrazolo[4,3-c]pyridin-1-yl]-2-azaspiro[3.5]nonan-2-yl]-1-piperidyl]-N-[3-(4-cyano-3-methoxy-phenoxy)-2,2,4,4-tetramethyl-cyclobutyl]benzamide]"
,1 to 100,"COc1cc(OC2C(C)(C)C(NC(=O)c3ccc(N4CCC5(CC4)CC(Oc4ccc(-c6cc7c(cc6C(F)F)N(c6nn(C8CCOCC8)c8c6CN(C(C)=O)CC8)CCC7)cn4)C5)cc3)C2(C)C)ccc1C#N (stereo not drawn) [Compound 306, 4-[2-[[5-[1-(5-acetyl-1-tetrahydropyran-4-yl-6,7-dihydro-4H-pyrazolo[4,3-c]pyridin-3-yl)-7-(difluoromethyl)-3,4-dihydro-2H-quinolin-6-yl]-2-pyridyl]oxy]-7-azaspiro[3.5]nonan-7-yl]-N-[3-(4-cyano-3-methoxy-phenoxy)-2,2,4,4-tetramethyl-cyclobutyl]benzamide]"
,0.1 to 1,"COc1cc(OC2C(C)(C)C(NC(=O)c3ccc(N4CCC(N5CCC(n6cc(-c7cc8cccc(-c9nn(C%10CCOCC%10)c%10c9CN(C(C)=O)CC%10)c8cn7)cn6)CC5)CC4)cc3)C2(C)C)ccc1C#N (stereo not drawn) [Compound 270, 4-[4-[4-[4-[8-(5-acetyl-1-tetrahydropyran-4-yl-6,7-dihydro-4H-pyrazolo[4,3-c]pyridin-3-yl)-3-isoquinolyl]pyrazol-1-yl]-1-piperidyl]-1-piperidyl]-N-[3-(4-cyano-3-methoxy-phenoxy)-2,2,4,4-tetramethylcyclobutyl]benzamide]"
